Measured values taken from patent US11173151B2, “Substituted triazole derivatives and uses thereof” (BAYER AKTIENGESELLSCHAFT, priority 2017, dated 2021).

Tests used:
human V2 receptor = biological target: T1, human V2 receptor (Homo sapiens, UniProt P30518); test: Cellular in vitro assay for determining vasopressin receptor activity, V2 receptor cell line (CHO, CRE-luciferase); type: cell-based; settings: CHO cell line transfected with human V2 receptor; [Arg8]-vasopressin at EC50 concentration; read-out: IC50 hV2
T1 construct: expressed in transfected cells; host or cells: CHO K1 (ATCC) expressing firefly luciferase under a CRE-responsive promoter

human V1a receptor = biological target: T2, human V1a receptor (Homo sapiens, UniProt P37288); test: Cellular in vitro assay for determining vasopressin receptor activity, V1a receptor cell line (CHO, aequorin luminescence); type: cell-based; settings: for IC50: CHO cell line transfected with human V1a receptor, [Arg]-vasopressin at EC50 concentration, read-out: IC50 hV1a; for ratio IC50 hV2/hV1a: selectivity ratio IC50 hV2 / IC50 hV1a
T2 construct: expressed in transfected cells; host or cells: CHO K1 (ATCC), also stably transfected with a modified aequorin
In short: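 Cells were plated the day before in medium containing 5 μg/ml coelenterazine and kept at 37° C. Compounds at various concentrations were then added for 10 minutes. Next, [Arg]-vasopressin at EC50 was applied and light output recorded at once, yielding IC50.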

T2 sequence (P37288 whole entry): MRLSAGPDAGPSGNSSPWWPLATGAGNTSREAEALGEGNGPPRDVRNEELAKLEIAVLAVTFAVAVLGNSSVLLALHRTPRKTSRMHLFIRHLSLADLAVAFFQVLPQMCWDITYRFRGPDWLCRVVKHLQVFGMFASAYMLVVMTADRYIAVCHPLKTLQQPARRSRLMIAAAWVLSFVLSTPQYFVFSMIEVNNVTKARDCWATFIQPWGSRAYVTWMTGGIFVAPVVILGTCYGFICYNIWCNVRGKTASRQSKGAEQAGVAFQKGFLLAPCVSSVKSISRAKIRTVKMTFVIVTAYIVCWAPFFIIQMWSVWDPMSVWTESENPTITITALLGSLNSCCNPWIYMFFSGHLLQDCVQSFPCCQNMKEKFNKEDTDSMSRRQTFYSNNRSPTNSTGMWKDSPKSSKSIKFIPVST
T1 sequence (P30518 whole entry): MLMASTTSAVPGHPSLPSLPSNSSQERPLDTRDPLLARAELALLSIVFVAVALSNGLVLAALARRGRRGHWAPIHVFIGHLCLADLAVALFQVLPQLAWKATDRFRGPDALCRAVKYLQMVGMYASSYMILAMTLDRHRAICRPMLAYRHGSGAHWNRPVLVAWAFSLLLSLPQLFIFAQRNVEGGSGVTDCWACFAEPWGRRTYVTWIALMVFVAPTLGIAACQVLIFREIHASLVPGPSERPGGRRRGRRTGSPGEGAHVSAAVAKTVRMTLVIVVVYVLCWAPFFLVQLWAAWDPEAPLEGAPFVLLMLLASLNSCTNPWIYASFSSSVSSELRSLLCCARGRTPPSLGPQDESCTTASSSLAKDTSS

## O=C(c1ncccc1-n1cnc(Cn2nc(-c3ccc(Cl)cc3)n(C[C@@H](O)C(F)(F)F)c2=O)n1)N1CCCCC1 [Example 471, 5-(4-chlorophenyl)-2-({1-[2-(piperidin-1-ylcarbonyl)pyridin-3-yl]-1H-1,2,4-triazol-3-yl}methyl)-4-[(2R)-3,3,3-trifluoro-2-hydroxypropyl]-2,4-dihydro-3H-1,2,4-triazol-3-one]
Human V2 receptor
  IC50: 20900 nM
Human V1a receptor
  IC50: 150 nM
  ratio IC50 hV2/hV1a: 139.3

## O=C(c1ncccc1-n1cnc(Cn2nc(-c3ccc(Cl)cc3)n(C[C@@H](O)C(F)(F)F)c2=O)n1)N1CCOCC1 [Example 472, 5-(4-Chlorophenyl)-2-({1-[2-(morpholin-4-ylcarbonyl)pyridin-3-yl]-1H-1,2,4-triazol-3-yl}methyl)-4-[(2R)-3,3,3-trifluoro-2-hydroxypropyl]-2,4-dihydro-3H-1,2,4-triazol-3-one]
Human V2 receptor
  IC50: 66000 nM
Human V1a receptor
  IC50: 320 nM
  ratio IC50 hV2/hV1a: 206.3

## O=C(NC1(C(F)(F)F)CC1)c1ncccc1-n1cnc(Cn2nc(-c3ccc(Cl)cc3)n(C[C@@H](O)C(F)(F)F)c2=O)n1 [Example 473, 3-[3-({3-(4-Chlorophenyl)-5-oxo-4-[(2R)-3,3,3-trifluoro-2-hydroxypropyl]-4,5-dihydro-1H-1,2,4-triazol-1-yl}methyl)-1H-1,2,4-triazol-1-yl]-N-[1-(trifluoromethyl)cyclopropyl]pyridine-2-carboxamide]
Human V2 receptor
  IC50: 1800 nM
Human V1a receptor
  IC50: 92 nM
  ratio IC50 hV2/hV1a: 19.6

## CC1(C)COCCN1C(=O)c1ncccc1-n1cnc(Cn2nc(-c3ccc(Cl)cc3)n(C[C@H](O)C(F)(F)F)c2=O)n1 [Example 474, 5-(4-Chlorophenyl)-2-[(1-{2-[(3,3-dimethylmorpholin-4-yl)carbonyl]pyridin-3-yl}-1H-1,2,4-triazol-3-yl)methyl]-4-[(2S)-3,3,3-trifluoro-2-hydroxypropyl]-2,4-dihydro-3H-1,2,4-triazol-3-one]
Human V2 receptor
  IC50: 22500 nM
Human V1a receptor
  IC50: 24 nM
  ratio IC50 hV2/hV1a: 937.5

## CC1(C)COCCN1C(=O)c1ncccc1-n1cnc(Cn2nc(-c3ccc(Cl)cc3)n(C[C@@H](O)C(F)(F)F)c2=O)n1 [Example 475, 5-(4-Chlorophenyl)-2-[(1-{2-[(3,3-dimethylmorpholin-4-yl)carbonyl]pyridin-3-yl}-1H-1,2,4-triazol-3-yl)methyl]-4-[(2R)-3,3,3-trifluoro-2-hydroxypropyl]-2,4-dihydro-3H-1,2,4-triazol-3-one]
Human V2 receptor
  IC50: 66000 nM
Human V1a receptor
  IC50: 90 nM
  ratio IC50 hV2/hV1a: 733.3

## O=C(c1ncccc1-n1cnc(Cn2nc(-c3ccc(Cl)cc3)n(C[C@@H](O)C(F)(F)F)c2=O)n1)N1CCC[C@H]1C(F)(F)F [Example 477, 5-(4-Chlorophenyl)-4-[(2R)-3,3,3-trifluoro-2-hydroxypropyl]-2-{[1-(2-{[(2S)-2-(trifluoromethyl)pyrrolidin-1-yl]carbonyl}pyridin-3-yl)-1H-1,2,4-triazol-3-yl]methyl}-2,4-dihydro-3H-1,2,4-triazol-3-one]
Human V2 receptor
  IC50: 11000 nM
Human V1a receptor
  IC50: 460 nM
  ratio IC50 hV2/hV1a: 23.9

## O=C(c1ncccc1-n1cnc(Cn2nc(-c3ccc(Cl)cc3)n(C[C@@H](O)C(F)(F)F)c2=O)n1)N1CCC[C@@H]1C(F)(F)F [Example 478, 5-(4-Chlorophenyl)-4-[(2R)-3,3,3-trifluoro-2-hydroxypropyl]-2-{[1-(2-{[(2R)-2-(trifluoromethyl)pyrrolidin-1-yl]carbonyl}pyridin-3-yl)-1H-1,2,4-triazol-3-yl]methyl}-2,4-dihydro-3H-1,2,4-triazol-3-one]
Human V2 receptor
  IC50: 7800 nM
Human V1a receptor
  IC50: 290 nM
  ratio IC50 hV2/hV1a: 26.9

## O=C(c1ncccc1-n1cnc(Cn2nc(-c3ccc(Cl)cc3)n(C[C@@H](O)C(F)(F)F)c2=O)n1)N1CCS(=O)(=O)CC1 [Example 479, 5-(4-Chlorophenyl)-2-[(1-{2-[(1,1-dioxidothiomorpholin-4-yl)carbonyl]pyridin-3-yl}-1H-1,2,4-triazol-3-yl)methyl]-4-[(2R)-3,3,3-trifluoro-2-hydroxypropyl]-2,4-dihydro-3H-1,2,4-triazol-3-one]
Human V2 receptor
  IC50: 32000 nM
Human V1a receptor
  IC50: 1400 nM
  ratio IC50 hV2/hV1a: 22.9

## CN(CC1CC1)C(=O)c1ncccc1-n1cnc(Cn2nc(-c3ccc(Cl)cc3)n(C[C@@H](O)C(F)(F)F)c2=O)n1 [Example 482, 3-[3-({3-(4-Chlorophenyl)-5-oxo-4-[(2R)-3,3,3-trifluoro-2-hydroxypropyl]-4,5-dihydro-1H-1,2,4-triazol-1-yl}methyl)-1H-1,2,4-triazol-1-yl]-N-(cyclopropylmethyl)-N-methylpyridine-2-carboxamide]
Human V2 receptor
  IC50: 32000 nM
Human V1a receptor
  IC50: 99 nM
  ratio IC50 hV2/hV1a: 323.2

## CC1(NC(=O)c2ncccc2-n2cnc(Cn3nc(-c4ccc(Cl)cc4)n(C[C@@H](O)C(F)(F)F)c3=O)n2)CC1 [Example 483, 3-[3-({3-(4-Chlorophenyl)-5-oxo-4-[(2R)-3,3,3-trifluoro-2-hydroxypropyl]-4,5-dihydro-1H-1,2,4-triazol-1-yl}methyl)-1H-1,2,4-triazol-1-yl]-N-(1-methylcyclopropyl)pyridine-2-carboxamide]
Human V2 receptor
  IC50: 3950 nM
Human V1a receptor
  IC50: 37 nM
  ratio IC50 hV2/hV1a: 106.8

## NC(=O)[C@H]1CC(F)(F)CN1C(=O)c1ncccc1-n1cnc(Cn2nc(-c3ccc(Cl)cc3)n(C[C@@H](O)C(F)(F)F)c2=O)n1 [Example 486, 1-({3-[3-({3-(4-Chlorophenyl)-5-oxo-4-[(2R)-3,3,3-trifluoro-2-hydroxypropyl]-4,5-dihydro-1H-1,2,4-triazol-1-yl}methyl)-1H-1,2,4-triazol-1-yl]pyridin-2-yl}carbonyl)-4,4-difluoro-D-prolinamide]
Human V2 receptor
  IC50: 32000 nM
Human V1a receptor
  IC50: 110 nM
  ratio IC50 hV2/hV1a: 290.9

## O=C(NC1CC1)c1ccncc1-n1cnc(Cn2nc(-c3ccc(Cl)cc3)n(C[C@H](O)C(F)(F)F)c2=O)n1 [Example 488, 3-[3-({3-(4-chlorophenyl)-5-oxo-4-[(2S)-3,3,3-trifluoro-2-hydroxypropyl]-4,5-dihydro-1H-1,2,4-triazol-1-yl}methyl)-1H-1,2,4-triazol-1-yl]-N-cyclopropylpyridine-4-carboxamide]
Human V2 receptor
  IC50: 2000 nM
Human V1a receptor
  IC50: 29 nM
  ratio IC50 hV2/hV1a: 69.0

## O=C(NCC(F)(F)F)c1ccncc1-n1cnc(Cn2nc(-c3ccc(Cl)cc3)n(C[C@H](O)C(F)(F)F)c2=O)n1 [Example 489, 3-[3-({3-(4-chlorophenyl)-5-oxo-4-[(2S)-3,3,3-trifluoro-2-hydroxypropyl]-4,5-dihydro-1H-1,2,4-triazol-1-yl}methyl)-1H-1,2,4-triazol-1-yl]-N-(2,2,2-trifluoroethyl)pyridine-4-carboxamide]
Human V2 receptor
  IC50: 1700 nM
Human V1a receptor
  IC50: 50 nM
  ratio IC50 hV2/hV1a: 34.0

## O=C(N[C@@H]1C[C@@H]1F)c1ccncc1-n1cnc(Cn2nc(-c3ccc(Cl)cc3)n(C[C@H](O)C(F)(F)F)c2=O)n1 [Example 490, 3-[3-({3-(4-Chlorophenyl)-5-oxo-4-[(2S)-3,3,3-trifluoro-2-hydroxypropyl]-4,5-dihydro-1H-1,2,4-triazol-1-yl}methyl)-1H-1,2,4-triazol-1-yl]-N-[(1R,2S)-2-fluorocyclopropyl]pyridine-4-carboxamide]
Human V2 receptor
  IC50: 380 nM
Human V1a receptor
  IC50: 16 nM
  ratio IC50 hV2/hV1a: 23.8

## O=C(NCCC(F)(F)F)c1ccncc1-n1cnc(Cn2nc(-c3ccc(Cl)cc3)n(C[C@H](O)C(F)(F)F)c2=O)n1 [Example 491, 3-[3-({3-(4-Chlorophenyl)-5-oxo-4-[(2S)-3,3,3-trifluoro-2-hydroxypropyl]-4,5-dihydro-1H-1,2,4-triazol-1-yl}methyl)-1H-1,2,4-triazol-1-yl]-N-(3,3,3-trifluoropropyl)pyridine-4-carboxamide]
Human V2 receptor
  IC50: 1300 nM
Human V1a receptor
  IC50: 21 nM
  ratio IC50 hV2/hV1a: 61.9

## CC1(NC(=O)c2ccncc2-n2cnc(Cn3nc(-c4ccc(Cl)cc4)n(C[C@H](O)C(F)(F)F)c3=O)n2)CC1 [Example 492, 3-[3-({3-(4-Chlorophenyl)-5-oxo-4-[(2S)-3,3,3-trifluoro-2-hydroxypropyl]-4,5-dihydro-1H-1,2,4-triazol-1-yl}methyl)-1H-1,2,4-triazol-1-yl]-N-(1-methylcyclopropyl)pyridine-4-carboxamide]
Human V2 receptor
  IC50: 440 nM
Human V1a receptor
  IC50: 1.8 nM
  ratio IC50 hV2/hV1a: 244.4

## O=C(NCC(F)(F)F)c1cccnc1-n1cnc(Cn2nc(-c3ccc(Cl)cc3)n(C[C@H](O)C(F)(F)F)c2=O)n1 [Example 494, 2-[3-({3-(4-chlorophenyl)-5-oxo-4-[(2S)-3,3,3-trifluoro-2-hydroxypropyl]-4,5-dihydro-1H-1,2,4-triazol-1-yl}methyl)-1H-1,2,4-triazol-1-yl]-N-(2,2,2-trifluoroethyl)pyridine-3-carboxamide]
Human V2 receptor
  IC50: 130 nM
Human V1a receptor
  IC50: 24.5 nM
  ratio IC50 hV2/hV1a: 5.3

## CNC(=O)c1cccnc1-n1cnc(Cn2nc(-c3ccc(Cl)cc3)n(C[C@H](O)C(F)(F)F)c2=O)n1 [Example 495, 2-[3-({3-(4-chlorophenyl)-5-oxo-4-[(2S)-3,3,3-trifluoro-2-hydroxypropyl]-4,5-dihydro-1H-1,2,4-triazol-1-yl}methyl)-1H-1,2,4-triazol-1-yl]-N-methylpyridine-3-carboxamide]
Human V2 receptor
  IC50: 520 nM
Human V1a receptor
  IC50: 20 nM
  ratio IC50 hV2/hV1a: 26.0

## O=C(NC1CC1)c1cccnc1-n1cnc(Cn2nc(-c3ccc(Cl)cc3)n(C[C@H](O)C(F)(F)F)c2=O)n1 [Example 496, 2-[3-({3-(4-chlorophenyl)-5-oxo-4-[(2S)-3,3,3-trifluoro-2-hydroxypropyl]-4,5-dihydro-1H-1,2,4-triazol-1-yl}methyl)-1H-1,2,4-triazol-1-yl]-N-cyclopropylpyridine-3-carboxamide]
Human V2 receptor
  IC50: 170 nM
Human V1a receptor
  IC50: 7.2 nM
  ratio IC50 hV2/hV1a: 23.6
